Values of other authors, collected in patent US20200101067A1 (IRR, Inc., priority 2013, published 2020).
Read-outs that look alike come from different tables or passages of the source.

What was measured:
H1 receptor = H1 receptor (Homo sapiens, UniProt P35367); details: acidic pH, inflamed tissue
[1] = not given; remark: listed apart in the source

Sequence of H1 receptor (P35367 whole entry): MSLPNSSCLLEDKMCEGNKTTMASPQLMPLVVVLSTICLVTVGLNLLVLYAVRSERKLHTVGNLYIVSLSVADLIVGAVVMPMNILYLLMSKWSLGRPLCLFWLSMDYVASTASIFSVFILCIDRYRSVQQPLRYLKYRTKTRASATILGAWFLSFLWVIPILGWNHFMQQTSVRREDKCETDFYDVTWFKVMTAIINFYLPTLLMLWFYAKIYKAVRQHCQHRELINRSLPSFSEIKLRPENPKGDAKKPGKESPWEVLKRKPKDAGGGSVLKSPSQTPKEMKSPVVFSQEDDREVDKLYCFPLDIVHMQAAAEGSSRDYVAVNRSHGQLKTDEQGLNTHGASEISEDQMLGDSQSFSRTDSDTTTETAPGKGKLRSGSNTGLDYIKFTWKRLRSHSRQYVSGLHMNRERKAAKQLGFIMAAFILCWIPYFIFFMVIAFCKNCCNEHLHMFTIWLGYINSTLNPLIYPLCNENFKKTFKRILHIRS

Enhanced receptor affinity over first generation mepyramine / first generation molecules (H1 receptor) | Enhanced receptor affinity over first generation mepyramine / first generation molecules (H1 receptor; listed as levocetirizine) | Dose that can be safely administered (studies in humans) | Time to steady state level ([1]; in vivo) | Structure (SMILES) | Eosinophil migration (IL-4, IL-6, and IL-8) | Inflammatory mediators IL-4, IL-6, and IL-8 (IL-4, IL-6, and IL-8) | Principal side effect at higher doses (higher doses, up to 30 mg/day) | Rhinovirus-induced ICAM-1 and cytokine expression and viral replication (human rhinovirus; airway epithelial cells) | ICAM-1, IL-6, IL-8, TLR3 expression and NF-kappa B activation (human rhinovirus; stated as in vivo) | Dose without clinically important adverse experiences (adult patients, 22 weeks) | Dose without clinically important adverse experiences (short-term studies, approximately one week) | Plasma concentration area under the curve profile, IV 7 mg vs approved 10 mg oral tablet ([1]; IV 7 mg) | Linear pharmacokinetics to dose ([1]; in vivo) | Steady-state level reached ([1]; in vivo) | Time to peak plasma level ([1]; in vivo) | Steady-state level reached ([1]; in vivo, listed as montelukast) | Effect of a standard meal on oral bioavailability and Cmax ([1]; oral)
5 × | up to 5 × | up to 30 mg/day | 40 h | O=C(O)COCCN1CCN([C@H](c2ccccc2)c2ccc(Cl)cc2)CC1 [Levocetirizine, levocetirizine] | decrease | decrease | Sedation | inhibits | decrease |  |  |  |  |  |  |  | 
 |  |  |  | CC(C)(O)c1ccccc1CC[C@@H](SCC1(CC(=O)O)CC1)c1cccc(/C=C/c2ccc3ccc(Cl)cc3n2)c1 [Montelukast, montelukast] |  |  |  |  |  | up to 200 mg/day | up to 900 mg/day | comparable | ≤ 50 mg | less than two | 3 to 4 h | two | not affected
